Experimental findings from PMC3810402 (Journal of the American Chemical Society, 2008) are described below.

SMILES strings stand for the structures.

One assay concerns HCT116-p53+/+ cells. Description: MTS cell viability assay, HCT116. It counts as cell-based. The settings on record: single dose, 10 μg/mL, positive control.
For the next assay, the system named is SW480 cells (mutant p53). Description: Tumor-killing activity by Trypan blue cell count, SW480. It counts as cell-based. As to conditions: added daily, 10 μg/mL.

On to `COc1ccc(C2=N[C@@H](c3ccc(Cl)cc3)[C@@H](c3ccc(Cl)cc3)N2C(=O)N2CCNC(=O)C2)c(OC(C)C)c1` [Nutlin-3], for which the “HCT116 cell viability (MTS)” value in the assay with HCT116-p53+/+ cells is listed as “a reduction in HCT116 cell viability”. Moreover, the “effectiveness against SW480” value in the assay on SW480 cells (mutant p53) is on record as “ineffective”.
